Experimental data as given in patent US20140058108A1 (SINOXA PHARMA UG, priority 2010, published 2014).

Experiments:
[1] = test system: 5-HT2B receptors of pulmonary arteries in pigs; assay: 5-HT-induced, 5-HT2B-mediated relaxing of PGF2α-pre-contracted pulmonary arteries in pigs (functional receptor assay); type: cell-based; details: under physiological conditions; not antagonized by maximum 5-HT concentrations
Description: (§1) In this case, the pA2 value reflects the negatively decade logarithm of the concentration of an antagonist, which makes it necessary to double the agonist concentration in order to restore the initial effect of the agonist without antagonists.
The vascular reaction in the preparations of pulmonary arteries in pigs, which are pre-contracted by means of PGF2α, were used as an assay for the specific interaction with 5-HT2B receptors (see FIG. 1A). […] Ketanserin is a standard-5HT2A antagonist, SB204741 is a standard-5-HT2B antagonist.

[2] = Stability of lisuride dissolved in water (HPL chromatogram); details: room temperature, FIG. 3A
[3] = target: T1, 5-HT2A receptors of coronary arteries in pigs (Sus scrofa, UniProt P50129); assay: Inhibition of 5-HT2A-mediated, 5-HT-induced contraction of coronary arteries in pigs; type: cell-based; details: n in own column
T1 construct: 5-HT2A-mediated contraction of the coronary arteries in pigs; from tissue; host or cells: isolated pig coronary artery
Description: as §1

[4] = test system: monocrotaline-induced pulmonary high pressure in rats; assay: Monocrotaline-induced pulmonary high pressure in rats; type: in vivo, male Sprague-Dawley rats; details: MCT 60 mg/kg s.c.; treatment bid via stomach tube days 15-28; measured day 28; lisuride 0.25 mg/kg, terguride 2.5 mg/kg; average ± SEM, N = 6
Description: Monocrotaline (MCT) is a toxin from plants of the Crotalaria species, which damages the endothelial cells of the pulmonary arteries after a single injection in rats, with the following hypertrophy of the smooth vascular musculature and persistent severe pulmonary high pressure. The MCT-induced pulmonary hypertension in rats is a well-established and validated model of human pulmonary hypertension, and all now-approved therapeutic agents have shown an action in this model, at least when they were used before the toxically-induced tissue remodeling.
MCT (60 mg/kg) was administered subcutaneously as a single injection in male Sprague-Dawley rats, and an identical volume of isotonic common salt solution was injected into the control animals. […]
On day 28 of the experiment, two hours after the last administration of substance, the animals were narcotized with use of pentobarbital. […] The mean arterial system pressure and the systolic pressure were measured in the right heart ventricle. […]
The s.c. injection of MCT, as described above, results in severe damage of the pulmonary vascular endothelium as well as excessive production of connective tissue and development of a pulmonary hypertension. Accumulation of collagen, measured as hydroxyproline content of the pulmonary tissue and increase of the right-ventricular systolic pressure reflect the described structural and functional changes.

[5] = Antioxidative action / radical trap (binding of oxygen radicals)
Description: Because of the small amounts of substances contained in the samples and the short life of the reaction products, it was not possible to isolate them for structural clarification.

[6] = test system: Human smooth muscle cells; assay: 5-HT-stimulated cell growth, 3H-thymidine uptake; type: cell-based; details: 10 μmol/l test substance, 5-HT 10-8 mol/l, 24 hours; FIG. 2
Description: To determine the cell growth, 3H-thymidine (Amersham) was then added to the cell cultures, and the latter were incubated for 24 hours. After the adhesion of the cells, the culture medium was replaced by a standard medium with 0.2% fetal calf serum to stop growth and incubated again for 48 hours.
In order to test antiproliferative actions of the described substances, the cell cultures were then pre-incubated first at a concentration of 10 μmol/l of the test substances. […] To measure the growth of cells, 3H-thymidine (Amersham) was then added to the cultures, and the latter was incubated for 24 hours. Then, 2 incubations were carried out in iced common salt solution with a phosphate buffer, and then a 30-minute incubation was carried out in iced 10% trichloroacetic acid at 4° C. The cells were then incubated in 0.1 molar NaOH solution (0.5 ml/incubation vessel). After neutralization with acetic acid, the 3H-thymidine uptake was measured with liquid scintillation (as 3× determination).

[7] = test system: 5-HT-induced effects in rats; details: cited from earlier work

T1 sequence (P50129 whole entry): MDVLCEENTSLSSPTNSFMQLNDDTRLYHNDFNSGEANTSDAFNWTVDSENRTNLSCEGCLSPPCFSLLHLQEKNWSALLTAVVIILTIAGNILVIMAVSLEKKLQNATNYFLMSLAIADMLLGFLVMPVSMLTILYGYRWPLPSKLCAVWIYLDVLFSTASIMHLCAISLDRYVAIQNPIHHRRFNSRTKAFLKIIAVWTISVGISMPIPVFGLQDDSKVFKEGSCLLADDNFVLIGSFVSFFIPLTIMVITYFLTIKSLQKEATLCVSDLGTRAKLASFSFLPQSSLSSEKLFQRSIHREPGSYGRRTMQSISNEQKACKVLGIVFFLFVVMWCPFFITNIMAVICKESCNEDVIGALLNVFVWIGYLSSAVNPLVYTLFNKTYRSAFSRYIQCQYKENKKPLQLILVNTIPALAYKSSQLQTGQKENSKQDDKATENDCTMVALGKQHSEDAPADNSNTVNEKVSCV

## CCN(CC)C(=O)N[C@H]1C=C2c3cccc4[nH]cc(c34)C[C@H]2N(C)C1 [Lisuride, 3-(9,10-didehydro-6-methylergoline-8alpha-yl)-1,1-diethylurea]
[1]
  type of antagonism of the 5-HT2B receptor: irreversible antagonist
[2]
  stability dissolved in water: quickly broken down

## CCNC(=O)NC1C=C2c3cccc4[nH]cc(c34)CC2N(C)C1 (stereo not drawn) [N″-Monodesethyllisuride]
[3]
  5-HT2A pA2: 8.29 ± 0.03

## CCN(CC)C(=O)N[C@H]1C[C@@H]2c3cccc4[nH]cc(c34)C[C@H]2N(C)C1 [Terguride, trans-dihydrolisuride]
[4]
  Systolic Right-Ventricular Pressure (RVPsys): 39 ± 3 mmHG
[5]
  free oxygen radicals taken up by an individual molecule: up to 4
[6]
  cell proliferation (3H-thymidine uptake): Reduction of cell proliferation
[7]; rats [Hauso 2007]
  5-HT-induced weight increase of the heart and liver: prevented
  behavior abnormalities and fibrotic skin changes at the injection sites of 5-HT: suppressed
[7]; rats, daily 5-HT over 4 months [Hauso 2007]
  development of pulmonary valve failure: not detectable
